Measurements as given in patent publication US20170261507A1, “Methods for Predicting and Monitoring Cancer Patients' Response to Teatment by Measuring Myeloid Derived Suppressor Cells (MDSCs)” (YISSUM RESEARCH DEVELOPMENT COMPANY OF THE HEBREW …, priority 2014, published 2017).

What was measured:
MDSCs [1] = assay: Myeloid cell differentiation in vivo in CRC-mice
cleaved caspase-3 = assay: Cleaved caspase-3 in splenic MDSCs of treated CRC-mice; format: in vivo, mouse
CRC-mice [2] = assay: Vitality and survival of CRC-mice; format: in vivo, mouse; conditions: daily recorded, compared to 5FU, CPT11 treated MDSC depleted or untreated CRC-mice
Description: Therefore, MDSC depletion could reduce the harmful effect of CPT11 on the immune status, and thereby enhance the anti-tumor effect. CRC-mice were subjected to either 5FU, CPT11 or a 5FU/CPT11 combination starting at week eight, or were untreated. At the same day of the second DSS administration, CPT11-treated CRC-mice were randomly separated into two groups; one group continued with CPT11 treatment while the second group was treated with anti-Gr1 mAb for MDSC depletion in addition to CPT11 treatment. Three weeks after the second DSS treatment mice were sacrificed and PBLs (FIG. 10B) and colons (FIG. 10C) were analyzed. […] This pattern indicates a beneficial effect of 5FU that attenuates CRC progression with a harmful contribution of CPT11, supporting immunosuppression and tumor progression via its effects on MDSCs.

[3] = tested on: MDSCs isolated from spleens of CRC mice; assay: Cleaved caspase-3 in ex vivo cultured MDSCs, DCs and macrophages; format: cell-based, mouse; conditions: ex vivo, various doses, 3 days, dose-dependent
[4] = tested on: MDSCs isolated from spleens of CRC-mice; assay: NO^− and ROS production in ex vivo cultured MDSCs; format: cell-based, mouse; conditions: 2.5 μmol/L, 24 h
MDSCs [5] = assay: BCG chronic inflammation mouse model: ROS and NO^− production by MDSCs; format: in vivo; conditions: splenic MDSCs, compared to inflamed-untreated mice
Description: (§1) Mice were injected intraperitoneally with 10 mg/kg body weight of Azoxymethan (AOM, purchased from Sigma-Aldrich (St. Louis, Mo., USA)) dissolved in physiological saline twice in two weeks intervals. Two weeks later, 2% dextran sulfate sodium (DSS, purchased from MP biochemicals Inc. (Santa Ana, Calif., USA)) was given in the drinking water over 7 days, followed by 14 days of regular water (15). This cycle was repeated twice. Animals were sacrificed and analyzed three weeks after the last treatment. To induce a pathology-free chronic inflammation, a previously described protocol subjecting mice to heat-killed Mycobacterium […] (BCG) treatment (16) was used.
(§2) Next, the immunoregulatory effects of 5FU and CPT11 were examined in a mouse model for chronic inflammation and associated immunosuppression (10), as described in the materials and method section above and in FIG. 13A. This experiment was performed in order to investigate whether the differential effects of the drugs are related to the presence of the tumor. Briefly, the mouse model for chronic inflammation was established by three repeated injections of heat-killed BCG bacteria. A day after the second BCG injection, mice were treated twice a week with 5FU, CPT11 or a 5FU/CPT11 combination. […] No changes in CD4^+Foxp3^+ Tregs percentage were detected (FIG. 13H), confirming that these chemotherapies specifically affect MDSCs.

Gr1^+CD11b^+ MDSCs = assay: MDSC accumulation in colon, spleen and PBLs of CRC-mice; format: in vivo, mouse
CRC-mice [6] = tested on: CRC-mice
MDSCs [7] = assay: NO^− and ROS production by MDSCs of treated CRC-mice (flow cytometry); format: in vivo, mouse
MDSCs [8] = assay: BCG chronic inflammation mouse model: MDSC levels; format: in vivo; conditions: PBLs and spleen, compared to inflamed-untreated mice
Description: as §1, §2

TNFα, S100A9 = assay: TNFα and S100A9 mRNA in ex vivo cultured MDSCs (Real Time PCR); format: cell-based, mouse; conditions: 3 days
T-cells = assay: CFSE T-cell proliferation assay, splenocytes of CRC-mice; format: in vivo, mouse; conditions: CFSE-labeled Thy1.2^+ T-cells, TCR-CD28 mediated activation, vs untreated CRC-mice
Description: Splenocytes or purified T-cells isolated by a magnetic column separation system (Miltenyi Biotec) were labeled with […] CFSE (Invitrogen) and subjected to TCR-mediated activation as previously described (16). Next, the effect of the given chemotherapies on the immune status was evaluated. This was performed by testing the function of the whole T-cell population (FIG. 9J) as well as the CD8^+ T-cells (FIG. 9K) in all experimental groups along with measurements of the expression levels of CD247 in CD3^+ (FIG. 9L) and in CD8^+ T-cells (FIG. 9M). T-cell proliferative response was assessed by monitoring cell divisions of gated CFSE-labeled Thy1.2^+ (CD90^+) T-cells upon TCR-CD28 mediated activation.

CRC-derived MDSC = assay: Ex vivo GM-CSF mediated myeloid-cell differentiation; format: cell-based, mouse; conditions: 10 ng/ml GM-CSF, 72 h, vs GM-CSF only
β-catenin = β-catenin immunohistochemistry of colons of CRC-mice; format: in vivo, mouse
CD247 = CD247 expression in T-cells of CRC-mice; format: in vivo, mouse; conditions: splenocytes of CRC-mice
Description: Next, the effect of the given chemotherapies on the immune status was evaluated. This was performed by testing the function of the whole T-cell population (FIG. 9J) as well as the CD8^+ T-cells (FIG. 9K) in all experimental groups along with measurements of the expression levels of CD247 in CD3^+ (FIG. 9L) and in CD8^+ T-cells (FIG. 9M). T-cell proliferative response was assessed by monitoring cell divisions of gated CFSE-labeled Thy1.2^+ (CD90^+) T-cells upon TCR-CD28 mediated activation.

S100A8/9 = conditions: MDSCs from spleen of CRC-mice
[9] = tested on: stage-4 melanoma patients; assay: Ipilimumab treatment of stage-4 metastatic melanoma patients: response and survival; format: in vivo, human
Description: The percentage of MDSC with the profile CD11b^+CD33^+HLA-DR^− was measured in peripheral blood samples (3-5 ml) of healthy donors (n=40) and stage-4 melanoma patients (n=56) prior to ipilimumab (anti-CTLA4) treatment. All the melanoma patients were diagnosed with metastatic melanoma. The samples were taken according to the Helsinki approval. Clinical parameters were acquired from the medical records of patients.
In order to evaluate whether MDSC levels in the blood can predict responsiveness to treatment with the anti CTLA4 antibody ipilimumab, the levels of MDSC in the peripheral blood of melanoma patients were measured, as described above, prior to treatment with ipilimumab. […] As shown in FIG. 3A there was a strike correlation between high levels of MDSC in the peripheral blood of patients and subsequent failure to respond to treatment with ipilimumab. Clearly, this parameter could distinguish between the two groups of melanoma patients. In addition, the level of lactate dehydrogenase (LDH) was evaluated before the treatment with ipilimumab began. There was no significant difference between the groups of patients with respect to this parameter (FIG. 3B).
The following experiment was performed in order to evaluate whether MDSC levels in the blood can predict metastatic severity and patient survival. The levels of MDSC, as well as the levels of LDH, were measured in the peripheral blood of melanoma patients, as described above, prior to treatment with ipilimumab. […] In addition, as shown in FIG. 4B higher MDSCs levels are found in the group of patients with high LDH levels (LDH low<480 U/I; LDH high>480 U/I). In addition, the melanoma patients were divided into two groups according to their MDSCs levels measured prior to the ipilimumab treatments; one group was termed Low MDSCs (<55.5%, n=39) and the other group was termed High MDSCs (>55.5%, n=14). The percent survival and their survival in months were evaluated. […] The survival in months of the Low MDSCs group being 11.56±1.2 (n=39) and of the High MDSCs group being 6.857±1.4 (n=14). Apparently, high MDSC levels are predictors of a more severe metastatic profile and of a shorter survival time of the cancer patient.
In this experiment the survival of melanoma patients was correlated with the severity of their metastatic stage and with their LDH levels. The patients were divided into two groups according to their metastatic level prior to ipilimumab treatments; the first group included patients with the relatively lower metastatic severity, namely M1A/B/C, and the second group included patients with the higher, M2, metastatic severity. As shown in FIGS. 5A and 5B the survival of patients in the M1A/B/C group was higher than the survival of the patients in the M2 group, being 12.4±1.2 months (n=35) in the M1A/B/C group and 6.1±1.1 months (n=18) in the M2 group. The patients were divided into two groups according their LDH levels prior to ipilimumab treatments; the first group included patients with the relatively lower LDH level, namely LDH<480 U/I; and the second group included patients with the higher LDH level, namely LDH>480 U/I. As shown in FIGS. 5C and 5D the survival of patients in the LDH low group was higher than the survival of the patients in the LDH high group, being 13.5±1.4 months (n=28) in the LDH low group and 6.6±0.9 months (n=20) in the LDH high group. Apparently, high LDH levels and a severe metastatic stage are predictors of a shorter survival time of the cancer patient.
These patients had high LDH levels on the day the first ipilimumab treatment was given and their staging level was M1C.

CCc1c2c(nc3ccc(OC(=O)N4CCC(N5CCCCC5)CC4)cc13)-c1cc3c(c(=O)n1C2)COC(=O)[C@]3(O)CC [CPT11, Irinotecan]
myeloid cell differentiation in vivo (DCs and macrophages) (MDSCs [1]): blocked myeloid cell differentiation
cleaved caspase-3 expression in spleen MDSCs (cleaved caspase-3): decreased cleaved caspase-3 levels
vitality and survival of the mice (CRC-mice [2]): increased death rates
cleaved caspase-3 in purified cultured MDSCs [3]: not CPT11 leads to cleaved caspase-3 up-regulation
NO^− and ROS production in monocytic and granulocyte MDSC populations [4]: increased NO^− (FIG. 9H) and ROS (FIG. 9I) production
NO^− or ROS production in purified cultured MDSCs [4]: resulted in their elevation
ROS and NO^− production (MDSCs [5]): induced opposite effects
MDSCs within the colon (immunohistochemical probing) (Gr1^+CD11b^+ MDSCs; anti-Gr-1 staining): elevated levels of the cells
MDSC numbers / infiltration in colon (Gr1^+CD11b^+ MDSCs; lamina propria and epithelium, flow cytometry, vs untreated CRC-mice): increased MDSC numbers
spleen size (inflammatory response) (CRC-mice [6]; compared to 5FU treated CRC- or control-mice): enlarged spleen size
tumor load within the colon (hematoxylin-eosin histopathology) (CRC-mice [6]; monotherapy for three weeks, vs untreated CRC mice): no apparent differences in tumor loads
histopathological analysis of colon sections (hematoxylin-eosin) (CRC-mice [6]; three weeks after second DSS treatment): differentiated adenocarcinoma
histological analyses of colons (CRC-mice [6]; treated CRC-mice): not only a loss of entire crypts and surface epithelial layer, but also a massive leukocyte infiltration into the mucosa
NO^− production (MDSCs [7]; lamina propria and epithelial MDSCs, vs untreated CRC mice): NO^− levels remained elevated
NO^− and ROS production (MDSCs [7]; splenic MDSCs, compared to untreated CRC-mice): elevated levels
MDSC levels (MDSCs [8]): induced opposite effects
mRNA levels of TNFα and S100A9 (TNFα, S100A9): increased mRNA levels
T-cell proliferative ability (T-cells): decreased T-cell proliferative ability
GM-CSF mediated CRC-derived MDSC differentiation (CRC-derived MDSC): prevented cell differentiation
β-catenin localization in CRC colons (β-catenin): massive β-catenin accumulation in the nuclei of tumor cells
CD247 expression levels in T-cells (CD247): low CD247 levels
S100A8/9 mRNA and protein levels (S100A8/9): increased S100A8/9 levels

ipilimumab: humanized anti-CTLA4 monoclonal antibody
survival in months ([9]; LDH high group (>480 U/I, n=20) prior to ipilimumab): 6.6±0.9 months
survival in months ([9]; LDH low group (<480 U/I, n=28) prior to ipilimumab): 13.5±1.4 months
survival in months ([9]; M1A/B/C group (n=35), metastatic level prior to ipilimumab): 12.4±1.2 months
survival in months ([9]; M2 group (n=18), metastatic level prior to ipilimumab): 6.1±1.1 months
survival in months ([9]; melanoma patients, High MDSCs group (>55.5%, n=14) prior to ipilimumab): 6.857±1.4 months
survival in months ([9]; melanoma patients, Low MDSCs group (<55.5%, n=39) prior to ipilimumab): 11.56±1.2 months
patients that responded to the ipilimumab treatment ([9]; out of the 56 patients involved in this study): 14 patients
